Measured values taken from patent US12133839B2, “Cannabinoid derivatives and methods for their preparation” (priority 2018, dated 2024).

Assays:
Cy-P450 = conditions: compared with CBD
[1] = test system: Cytochrome P450 (Cy-P450)

CCCCCc1cc(O)c(C2CC(C)CCC2C(C)C)c(O)c1 (centres unmarked) [Tetrahydro CBD (II), Tetrahydrocannabidiol]
oxidation by Cy-P450 (Cy-P450): slower oxidation | duration of the increased CBD activity [1]: only a few minutes | increase in CBD activity, in effect and duration ([1]; compared with CBD): approximately double

CCCCCc1cc(O)c(C2CC(C)CCC2C(C)C)c(O)c1C(C)=O (centres unmarked) [Tetradhydro 2′-acetyl CBD (III), [Ar]-Acetyl Tetrahydrocannabidiol]
time for which formation of 11-Hydroxy THC is prevented (enhanced CBD effect) [1]: about one

CCCCCc1cc(O)c(C2CC(C)CCC2C(C)C)c(O)c1C(=O)CC (centres unmarked) [[Ar]-Propionyl Tetrahydrocannabidiol]
time for which THC metabolism is delayed [1]: up to 48 hours
